Common to all, as to format: biochemical
The target in one assay is JAK1 (Homo sapiens (Human), UniProt P23458). The experiment in a line: JAK/TYK2 assay (Kinase Glo luminescence), JAK1. The settings on record: 7.5 nM enzyme, 2 uM ATP, 30 uM IRS-1, 1 hr. Here is the method:
(§1) 10 mM test compound stock or 1 mM control compound stock (tofocitinib, ruxolitinib or staurosporine) in DMSO was diluted to 0.4 mM in DMSO. A 3-fold series dilution was then performed in DMSO to generate 10 different compound concentrations. The assay was carried out in 384-well white plate. 0.5 uL of 40× compound DMSO solution at different concentrations was mixed with 10 uL 2× enzyme prepared in reaction buffer (20 mM HEPES, 10 mM MgCl2, 0.01% Tween, 1 mM DTT, pH 7.5). 10 uL 2× substrate mixture prepared in reaction buffer was then added to start the reaction. A short spin was done to settle down all solutions to the bottom of the plate. Final concentrations of test compound in the reaction mixture were 10000, 3333, 1111, 370, 123, 41.2, 13.7, 4.57, 1.52and 0.51 nM. Concentrations of control compound were ten times less. Enzymatic reaction was conducted at 25° C. for 1-2 hours. 10 uL of Kinase Glo Reagents was added to stop the reaction and generate the luminescent signal which was measured using Envision. Luminescence signal was inversely related to kinase activity. […] The mixture without any compound was the positive control.
Background: Kinase-Glo reads ATP consumption through a luciferase reaction.

The next assay has as its target JAK2 (Homo sapiens (Human), UniProt O60674). Put plainly: JAK/TYK2 assay (Kinase Glo luminescence), JAK2. Conditions: 0.8 nM enzyme, 2 uM ATP, 4 uM pEY, 1 hr. As for the experimental part:
as §1

The next assay concerns the target JAK3 (Homo sapiens (Human), UniProt P52333). Put plainly: JAK/TYK2 assay (Kinase Glo luminescence), JAK3. Conditions: 1.5 nM enzyme, 2 uM ATP, 4 uM pEY, 1 hr. As for the experimental part: as §1
The target in another assay is TYK2 (Homo sapiens (Human), UniProt P29597). The experiment in a line: JAK/TYK2 assay (Kinase Glo luminescence), TYK2. The settings on record: 9 nM enzyme, 2 uM ATP, 30 uM IRS-1, 1 hr. Here is the method: as §1
TYK2, sequence (P29597 whole entry, species assumed): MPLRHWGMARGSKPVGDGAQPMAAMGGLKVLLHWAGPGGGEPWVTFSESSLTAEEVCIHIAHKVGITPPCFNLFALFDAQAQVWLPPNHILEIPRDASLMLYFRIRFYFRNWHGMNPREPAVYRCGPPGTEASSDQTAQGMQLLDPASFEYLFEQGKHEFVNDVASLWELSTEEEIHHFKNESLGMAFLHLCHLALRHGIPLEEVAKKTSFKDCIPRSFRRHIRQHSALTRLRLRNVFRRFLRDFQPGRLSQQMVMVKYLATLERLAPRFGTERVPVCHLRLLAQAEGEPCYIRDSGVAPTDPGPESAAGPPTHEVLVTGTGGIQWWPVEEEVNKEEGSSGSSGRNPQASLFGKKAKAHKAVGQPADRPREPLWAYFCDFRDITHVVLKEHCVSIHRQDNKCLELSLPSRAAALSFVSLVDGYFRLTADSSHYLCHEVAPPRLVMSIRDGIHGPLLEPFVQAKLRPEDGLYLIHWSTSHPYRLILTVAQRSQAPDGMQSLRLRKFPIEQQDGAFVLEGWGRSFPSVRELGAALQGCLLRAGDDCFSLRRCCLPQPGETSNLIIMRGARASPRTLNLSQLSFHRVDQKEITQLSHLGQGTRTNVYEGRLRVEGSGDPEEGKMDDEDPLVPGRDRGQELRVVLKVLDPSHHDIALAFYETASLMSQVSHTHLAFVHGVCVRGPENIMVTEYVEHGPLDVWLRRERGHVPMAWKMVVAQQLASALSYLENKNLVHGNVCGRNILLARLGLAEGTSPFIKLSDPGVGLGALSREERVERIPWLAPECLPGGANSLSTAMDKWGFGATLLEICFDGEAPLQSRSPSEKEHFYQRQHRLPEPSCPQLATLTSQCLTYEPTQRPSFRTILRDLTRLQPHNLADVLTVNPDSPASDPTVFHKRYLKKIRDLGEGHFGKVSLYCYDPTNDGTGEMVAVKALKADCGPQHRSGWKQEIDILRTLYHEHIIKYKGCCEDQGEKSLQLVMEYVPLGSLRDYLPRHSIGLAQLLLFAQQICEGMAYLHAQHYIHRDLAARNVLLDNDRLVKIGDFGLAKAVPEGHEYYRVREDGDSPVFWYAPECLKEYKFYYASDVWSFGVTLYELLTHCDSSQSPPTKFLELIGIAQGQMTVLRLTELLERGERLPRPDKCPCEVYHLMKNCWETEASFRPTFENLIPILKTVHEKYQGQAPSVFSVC

JAK2, sequence (O60674 whole entry, species assumed): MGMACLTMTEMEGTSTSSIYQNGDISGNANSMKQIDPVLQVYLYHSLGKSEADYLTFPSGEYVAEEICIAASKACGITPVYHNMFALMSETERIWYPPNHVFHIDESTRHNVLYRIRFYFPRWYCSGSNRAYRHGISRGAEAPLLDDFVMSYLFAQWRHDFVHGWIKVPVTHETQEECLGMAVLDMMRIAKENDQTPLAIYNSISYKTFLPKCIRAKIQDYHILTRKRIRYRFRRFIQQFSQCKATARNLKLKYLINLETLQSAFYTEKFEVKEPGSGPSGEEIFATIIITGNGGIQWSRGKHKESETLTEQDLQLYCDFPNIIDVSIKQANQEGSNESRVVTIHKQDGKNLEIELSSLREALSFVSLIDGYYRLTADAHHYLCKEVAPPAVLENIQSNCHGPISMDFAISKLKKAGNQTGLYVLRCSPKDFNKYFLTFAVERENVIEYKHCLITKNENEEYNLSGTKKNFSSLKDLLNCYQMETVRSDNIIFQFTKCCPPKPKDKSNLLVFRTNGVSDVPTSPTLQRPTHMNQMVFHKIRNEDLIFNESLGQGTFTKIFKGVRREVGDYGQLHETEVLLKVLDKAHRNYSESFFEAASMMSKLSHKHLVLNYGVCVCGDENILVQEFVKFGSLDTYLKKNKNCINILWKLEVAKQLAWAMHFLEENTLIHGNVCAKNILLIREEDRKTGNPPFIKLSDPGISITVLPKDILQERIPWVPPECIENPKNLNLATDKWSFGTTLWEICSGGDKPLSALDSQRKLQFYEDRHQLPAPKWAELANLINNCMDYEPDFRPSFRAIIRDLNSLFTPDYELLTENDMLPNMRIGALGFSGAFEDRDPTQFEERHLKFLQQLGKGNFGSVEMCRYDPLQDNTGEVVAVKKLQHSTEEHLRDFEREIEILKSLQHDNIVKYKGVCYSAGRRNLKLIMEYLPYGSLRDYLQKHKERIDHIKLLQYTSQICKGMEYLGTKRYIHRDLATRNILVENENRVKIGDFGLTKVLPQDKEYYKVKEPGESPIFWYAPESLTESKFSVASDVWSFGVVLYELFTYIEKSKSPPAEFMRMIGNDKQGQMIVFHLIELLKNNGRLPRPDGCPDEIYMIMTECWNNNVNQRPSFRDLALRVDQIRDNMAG
JAK1, sequence (P23458 whole entry, species assumed): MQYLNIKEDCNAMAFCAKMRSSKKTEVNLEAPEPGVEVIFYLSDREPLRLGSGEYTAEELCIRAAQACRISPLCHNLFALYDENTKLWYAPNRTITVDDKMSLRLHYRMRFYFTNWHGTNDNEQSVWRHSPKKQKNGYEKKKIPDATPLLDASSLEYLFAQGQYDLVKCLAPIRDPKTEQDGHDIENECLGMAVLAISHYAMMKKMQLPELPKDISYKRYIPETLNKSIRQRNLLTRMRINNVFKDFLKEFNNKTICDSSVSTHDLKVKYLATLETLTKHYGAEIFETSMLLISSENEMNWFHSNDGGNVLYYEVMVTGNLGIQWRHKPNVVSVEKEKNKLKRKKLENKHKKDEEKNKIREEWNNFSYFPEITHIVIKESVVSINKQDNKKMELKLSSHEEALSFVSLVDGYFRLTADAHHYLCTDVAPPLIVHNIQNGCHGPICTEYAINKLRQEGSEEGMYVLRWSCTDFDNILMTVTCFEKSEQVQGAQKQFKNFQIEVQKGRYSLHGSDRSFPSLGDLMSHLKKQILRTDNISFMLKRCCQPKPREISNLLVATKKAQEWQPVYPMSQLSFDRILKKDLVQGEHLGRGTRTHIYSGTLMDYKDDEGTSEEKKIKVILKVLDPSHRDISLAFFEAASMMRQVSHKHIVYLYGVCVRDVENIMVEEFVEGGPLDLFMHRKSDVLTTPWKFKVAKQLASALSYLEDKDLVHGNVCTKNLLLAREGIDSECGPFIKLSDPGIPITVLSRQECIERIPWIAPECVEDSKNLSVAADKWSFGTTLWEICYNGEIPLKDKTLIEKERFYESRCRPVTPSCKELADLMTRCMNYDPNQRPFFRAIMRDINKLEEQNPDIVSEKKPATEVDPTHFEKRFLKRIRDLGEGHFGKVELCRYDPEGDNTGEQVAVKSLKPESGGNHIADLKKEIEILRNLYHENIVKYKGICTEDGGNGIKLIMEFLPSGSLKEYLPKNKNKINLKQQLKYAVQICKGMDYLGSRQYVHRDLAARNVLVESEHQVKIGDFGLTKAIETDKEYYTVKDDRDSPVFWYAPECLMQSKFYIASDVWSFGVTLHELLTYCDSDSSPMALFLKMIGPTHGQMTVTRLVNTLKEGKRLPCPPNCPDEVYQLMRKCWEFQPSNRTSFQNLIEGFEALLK
JAK3, sequence (P52333 whole entry, species assumed): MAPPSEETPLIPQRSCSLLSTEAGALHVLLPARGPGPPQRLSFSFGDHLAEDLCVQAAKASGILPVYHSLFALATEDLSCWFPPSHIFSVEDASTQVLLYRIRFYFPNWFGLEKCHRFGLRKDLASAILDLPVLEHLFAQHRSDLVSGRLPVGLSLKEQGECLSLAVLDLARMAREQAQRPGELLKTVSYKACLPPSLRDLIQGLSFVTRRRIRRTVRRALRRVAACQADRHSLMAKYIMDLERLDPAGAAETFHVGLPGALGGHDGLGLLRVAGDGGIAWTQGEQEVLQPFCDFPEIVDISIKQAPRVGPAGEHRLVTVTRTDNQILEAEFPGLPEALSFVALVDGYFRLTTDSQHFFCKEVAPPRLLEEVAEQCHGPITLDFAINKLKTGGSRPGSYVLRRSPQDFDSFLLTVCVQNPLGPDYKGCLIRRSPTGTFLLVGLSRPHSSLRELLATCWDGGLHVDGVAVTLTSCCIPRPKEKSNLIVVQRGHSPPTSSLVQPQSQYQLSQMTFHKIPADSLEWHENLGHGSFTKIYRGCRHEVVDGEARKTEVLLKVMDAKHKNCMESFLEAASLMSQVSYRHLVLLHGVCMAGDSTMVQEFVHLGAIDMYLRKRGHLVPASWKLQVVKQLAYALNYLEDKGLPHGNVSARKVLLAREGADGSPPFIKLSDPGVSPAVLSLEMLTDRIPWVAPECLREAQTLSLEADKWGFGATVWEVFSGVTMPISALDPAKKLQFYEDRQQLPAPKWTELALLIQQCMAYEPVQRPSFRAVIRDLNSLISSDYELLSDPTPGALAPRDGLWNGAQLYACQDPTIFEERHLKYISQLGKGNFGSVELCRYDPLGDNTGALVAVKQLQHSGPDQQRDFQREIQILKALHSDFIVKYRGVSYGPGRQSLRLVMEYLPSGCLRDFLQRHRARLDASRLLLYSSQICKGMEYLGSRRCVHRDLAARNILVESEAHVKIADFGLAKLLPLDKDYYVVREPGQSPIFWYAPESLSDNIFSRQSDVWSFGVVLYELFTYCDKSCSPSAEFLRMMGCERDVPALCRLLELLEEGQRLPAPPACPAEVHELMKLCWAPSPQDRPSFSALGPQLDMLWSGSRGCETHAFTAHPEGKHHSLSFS

Usually IC50 stands for the point on the concentration scale where inhibition reaches its midpoint. A lower IC50 goes with higher potency. Consider `CCOC(=O)Cn1cc(Nc2ncc3ccn(C[C@H]4CCC[C@@H](OC)C4)c3n2)cn1` [Compound 130, ethyl 2-(4-((7-(((1S,3R)-3-methoxycyclohexyl)methyl)-7H-pyrrolo[2,3-d]pyrimidin-2-yl)amino)-1H-pyrazol-1-yl)acetate], for which the IC50 at JAK1, against JAK2, on JAK3 and against TYK2 was < 100 nM each time.

`CCOC(=O)C(C)n1cc(Nc2ncc3ccn(CC(CC)CC)c3n2)cn1` (stereo not drawn) [Compound 28, ethyl 2-(4-((7-(2-ethylbutyl)-7H-pyrrolo[2,3-d]pyrimidin-2-yl)amino)-1H-pyrazol-1-yl)propanoate]: the IC50 on JAK1, on JAK2, at JAK3 and against TYK2 was < 100 nM in each case.

For the compound `O=C(O)CCn1cc(Nc2ncc3ccn(C[C@H]4CC[C@H](O)CC4)c3n2)cn1` [Compound 117, 3-(4-((7-(((1r,4r)-4-hydroxycyclohexyl)methyl)-7H-pyrrolo[2,3-d]pyrimidin-2-yl)amino)-1H-pyrazol-1-yl)propanoic acid], the IC50 at JAK1, against JAK2, at JAK3 and at TYK2 was < 100 nM throughout.

On to `CCOC(=O)Cn1cc(Nc2ncc3ccn(C[C@@H](CC)C(C)C)c3n2)cn1` [Compound 135, ethyl (S)-2-(4-((7-(2-ethyl-3-methylbutyl)-7H-pyrrolo[2,3-d]pyrimidin-2-yl)amino)-1H-pyrazol-1-yl)acetate], for which the IC50 on JAK1, against JAK2, at JAK3 and against TYK2 was < 100 nM each time.

In the case of `CCOC(=O)Cn1cc(Nc2ncc3ccn(CCC(C)C)c3n2)cn1` [Compound 21, ethyl 2-(4-((7-isopentyl-7H-pyrrolo[2,3-d]pyrimidin-2-yl)amino)-1H-pyrazol-1-yl)acetate], the IC50 against JAK1, at JAK2, against JAK3 and against TYK2 was < 100 nM in each case.

With `O=C(O)Cn1cc(Nc2ncc3ccn(CC4CCCC(F)(F)C4)c3n2)cn1` (stereo not drawn) [Compound 38, 2-(4-((7-((3,3-difluorocyclohexyl)methyl)-7H-pyrrolo[2,3-d]pyrimidin-2-yl)amino)-1H-pyrazol-1-yl)acetic acid], the IC50 on JAK1, against JAK2, on JAK3 and at TYK2 was < 100 nM in each case.

For `CC(C)OC(=O)Cn1cc(Nc2ncc3ccn(C[C@@H](CCO)C(C)C)c3n2)cn1` [Compound 97, isopropyl (S)-2-(4-((7-(4-hydroxy-2-isopropylbutyl)-7H-pyrrolo[2,3-d]pyrimidin-2-yl)amino)-1H-pyrazol-1-yl)acetate], the IC50 at JAK1, on JAK2, against JAK3 and against TYK2 was < 100 nM throughout.

As to `CC(C)C(Cn1ccc2cnc(Nc3cnn(CC(=O)O)c3)nc21)C(C)C` [Compound 87, 2-(4-((7-(2-isopropyl-3-methylbutyl)-7H-pyrrolo[2,3-d]pyrimidin-2-yl)amino)-1H-pyrazol-1-yl)acetic acid], the IC50 against JAK1, against JAK2, against JAK3 and on TYK2 was < 100 nM in each case.

For the compound `CCOC(=O)Cn1cc(Nc2ncc3ccn(CC4CC5CCC4C5)c3n2)cn1` (stereo not drawn) [Compound 40, ethyl 2-(4-((7-(bicyclo[2.2.1]heptan-2-ylmethyl)-7H-pyrrolo[2,3-d]pyrimidin-2-yl)amino)-1H-pyrazol-1-yl)acetate], the IC50 on JAK1, against JAK2, at JAK3 and against TYK2 was < 100 nM each time.

With `CC[C@H](Cn1ccc2cnc(Nc3cnn(CC(=O)OC4COC4)c3)nc21)C(C)C` [Compound 140, oxetan-3-yl (S)-2-(4-((7-(2-ethyl-3-methylbutyl)-7H-pyrrolo[2,3-d]pyrimidin-2-yl)amino)-1H-pyrazol-1-yl)acetate], the IC50 against JAK1, against JAK2, on JAK3 and at TYK2 was < 100 nM each time.

Consider `CCOC(=O)Cn1cc(Nc2ncc3ccn(CC4CCC4)c3n2)cn1` [Compound 14, ethyl 2-(4-((7-(cyclobutylmethyl)-7H-pyrrolo[2,3-d]pyrimidin-2-yl)amino)-1H-pyrazol-1-yl)acetate], for which the IC50 at JAK3 is < 100 nM.

Take `CCOC(=O)c1nc(Cn2ccc3cnc(Nc4cnn(C)c4)nc32)cs1` [Compound 56]: the IC50 at JAK1, at JAK2 and at JAK3 was 1000 to 10000 nM in each case.

Take `CCOC(=O)Cn1cc(Nc2ncc3ccn(CC4CCS(=O)(=O)CC4)c3n2)cn1` [Compound 125, ethyl 2-(4-((7-((1,1-dioxidotetrahydro-2H-thiopyran-4-yl)methyl)-7H-pyrrolo[2,3-d]pyrimidin-2-yl)amino)-1H-pyrazol-1-yl)acetate]: the IC50 on JAK1 lay in the range of 1000 to 10000 nM; at JAK2, 1000 to 10000 nM; on TYK2, 100 to 1000 nM.

In the case of `C=CC(=O)Nc1cccc(Cn2ccc3cnc(Nc4cnn(CC(=O)OCC)c4)nc32)c1` [Compound 95, ethyl 2-(4-((7-(3-acrylamidobenzyl)-7H-pyrrolo[2,3-d]pyrimidin-2-yl)amino)-1H-pyrazol-1-yl)acetate], the IC50 on JAK1, against JAK2 and on JAK3 was 100 to 1000 nM each time.

In the case of `CCOC(=O)c1ccc(Cn2ccc3cnc(Nc4cnn(C)c4)nc32)s1` [Compound 58, ethyl 5-((2-((1-methyl-1H-pyrazol-4-yl)amino)-7H-pyrrolo[2,3-d]pyrimidin-7-yl)methyl)thiophene-2-carboxylate], the IC50 at JAK3 is 1000 to 10000 nM.

Consider `CCOC(=O)Cn1cc(Nc2ncc3ccn(CC4CCSCC4)c3n2)cn1` [Compound 126, ethyl 2-(4-((7-((tetrahydro-2H-thiopyran-4-yl)methyl)-7H-pyrrolo[2,3-d]pyrimidin-2-yl)amino)-1H-pyrazol-1-yl)acetate], for which the IC50 against JAK1 is 100 to 1000 nM; against JAK2 it was < 100 nM; against TYK2, < 100 nM.

Take `CCOC(=O)Cn1cc(Nc2ncc3ccn(CC4CC4)c3n2)cn1` [Compound 25, ethyl 2-(4-((7-(cyclopropylmethyl)-7H-pyrrolo[2,3-d]pyrimidin-2-yl)amino)-1H-pyrazol-1-yl)acetate]: the IC50 on JAK3 was < 100 nM.

In the case of `CCOC(=O)Cn1cc(Nc2ncc3c(Cl)cn(CC4CCCCC4)c3n2)cn1` [Compound 60, ethyl 2-(4-((5-chloro-7-(cyclohexylmethyl)-7H-pyrrolo[2,3-d]pyrimidin-2-yl)amino)-1H-pyrazol-1-yl)acetate], the IC50 on JAK3 is < 100 nM.

Consider `CCOC(=O)c1ccc(Nc2ncc3ccn(Cc4ccsc4)c3n2)cc1` [Compound 12, ethyl 4-((7-(thiophen-3-ylmethyl)-7H-pyrrolo[2,3-d]pyrimidin-2-yl)amino)benzoate], for which the IC50 on JAK3 lay in the range of 100 to 1000 nM.

`CCOC(=O)Cn1cc(Nc2ncc3ccn(C[C@H]4CC[C@H](NC)CC4)c3n2)cn1` [Compound 123]: the values for the IC50 against JAK1, against JAK2 and on TYK2 were 100 to 1000 nM, < 100 nM and < 100 nM, respectively.

As to `CCOC(=O)Cn1ccc2cnc(Nc3cnn(C)c3)nc21` [Compound 57, ethyl 2-(2-((1-methyl-1H-pyrazol-4-yl)amino)-7H-pyrrolo[2,3-d]pyrimidin-7-yl)acetate], the figures for the IC50 on JAK1, at JAK2 and on JAK3 were 1000 to 10000 nM, 100 to 1000 nM and 1000 to 10000 nM, respectively.

Source of the values: US11136329B2, “JAK inhibitors” (Vimalan Biosciences, Inc., priority 2019, dated 2021).
